Source: PubChem BioAssay AID1963429 (Molecular Pharmacology Branch, DTP, NCI, 2024)
Where “and” joins values, the source holds several entries; their conditions need not be identical. Equal entries are not always repeated.

Test system: 126254-015-R-J1-PDC complex spheroid growth, % test/control
Test: Anticancer human tumor 126254-015-R-J1-PDC patient-derived soft tissue sarcoma cell line growth inhibition [Asc]
Details: for viability, T/C: stronger effect = lower value
Outline: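 Complex spheroids combining tumor cells with HUVEC endothelial cells and human MSCs, at 37 degrees C, 5% CO2; agents tested alone or combined, half-log dilutions from at or near clinical Cmax, or 10 microM if Cmax unknown.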

[1] = curve of first compound, second compound 0.1 µM
[2] = curve of first compound, second compound 0.316 µM
[3] = curve of first compound, second compound 1 µM
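Also: spheroids exposed to compound for seven days.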
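For viability, T/C in this document: 100% = DMSO vehicle control wells.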

Compound NC(=O)C(=Cn1cnc(-c2cc(C(F)(F)F)cc(C(F)(F)F)c2)n1)c1cncnc1 + Cc1c(S(C)(=O)=O)c(-c2cc(F)cc(N3CCN(c4ccc(NS(=O)(=O)c5ccc(NC(CCN6CCC(C(=O)OCCCP(=O)(O)O)CC6)CSc6ccccc6)c(S(=O)(=O)C(F)(F)F)c5)cc4)CC3)c2)c(-c2ccc(Cl)cc2)n1C(C)C has an IC50 [1] of 30.5 nM, an IC50 [2] of 37.3 nM and an IC50 [3] of 31.5 nM. It also gave an IC50 (curve of first compound, second compound 3.16 µM) of 29.6 nM, an IC50 (curve of first compound, second compound 10 µM) of 26.1 nM and a viability, T/C (second compound 0.1 µM, first compound 0.000949 µM) of 98.5%. The viability, T/C (second compound 0.1 µM, first compound 0.003 µM) was 93.8%, the viability, T/C (second compound 0.1 µM, first compound 0.00949 µM) was 74.5% and the viability, T/C (second compound 0.1 µM, first compound 0.03 µM) was 53.2%. It also gave a viability, T/C (second compound 0.1 µM, first compound 0.0949 µM) of 22%, a viability, T/C (second compound 0.1 µM, first compound 0.3 µM) of 11% and a viability, T/C (second compound 0.316 µM, first compound 0.000949 µM) of 78.1%. It also gave a viability, T/C (second compound 0.316 µM, first compound 0.003 µM) of 82.4%, a viability, T/C (second compound 0.316 µM, first compound 0.00949 µM) of 70% and a viability, T/C (second compound 0.316 µM, first compound 0.03 µM) of 58%. The viability, T/C (second compound 0.316 µM, first compound 0.0949 µM) was 23%, the viability, T/C (second compound 0.316 µM, first compound 0.3 µM) was 8.76% and the viability, T/C (second compound 1 µM, first compound 0.000949 µM) was 83.4%. It also gave a viability, T/C (second compound 1 µM, first compound 0.003 µM) of 74%, a viability, T/C (second compound 1 µM, first compound 0.00949 µM) of 76.6% and a viability, T/C (second compound 1 µM, first compound 0.03 µM) of 49.5%. It also gave a viability, T/C (second compound 1 µM, first compound 0.0949 µM) of 23%, a viability, T/C (second compound 1 µM, first compound 0.3 µM) of 7.77% and a viability, T/C (second compound 3.16 µM, first compound 0.000949 µM) of 94.8%. It also gave a viability, T/C (second compound 3.16 µM, first compound 0.003 µM) of 82.7%, a viability, T/C (second compound 3.16 µM, first compound 0.00949 µM) of 77.5% and a viability, T/C (second compound 3.16 µM, first compound 0.03 µM) of 50.6%. For the same compound, the viability, T/C (second compound 3.16 µM, first compound 0.0949 µM) was 19.3%, the viability, T/C (second compound 3.16 µM, first compound 0.3 µM) was 7.61% and the viability, T/C (second compound 10 µM, first compound 0.000949 µM) was 85.6%. For the same compound, the viability, T/C (second compound 10 µM, first compound 0.003 µM) was 77.2%, the viability, T/C (second compound 10 µM, first compound 0.00949 µM) was 68.4% and the viability, T/C (second compound 10 µM, first compound 0.03 µM) was 49.9%. For the same compound, the viability, T/C (second compound 10 µM, first compound 0.0949 µM) was 19.3% and the viability, T/C (second compound 10 µM, first compound 0.3 µM) was 7.73%.
For O=C(c1ccc(F)c(F)c1Nc1ccc(I)cc1F)N1CC(O)([C@@H]2CCCCN2)C1 + CNC(C)C(=O)NC1CN(S(=O)(=O)c2cccc(S(=O)(=O)N3CCC4CCC(C(=O)NC(c5ccccc5)c5ccccc5)N4C(=O)C(NC(=O)C(C)NC)C3)c2)CCC2CCC(C(=O)NC(c3ccccc3)c3ccccc3)N2C1=O, the IC50 (curve of first compound, second compound 0.01 µM) was 594 nM, the IC50 (curve of first compound, second compound 0.0316 µM) was 377 nM and the IC50 [1] was 164 nM. For the same compound, the IC50 [2] was 86.6 nM, the IC50 [3] was 85.2 nM and the viability, T/C (second compound 0.01 µM, first compound 0.00316 µM) was 82.4%. The viability, T/C (second compound 0.01 µM, first compound 0.01 µM) was 87.6%, the viability, T/C (second compound 0.01 µM, first compound 0.0316 µM) was 79.8% and the viability, T/C (second compound 0.01 µM, first compound 0.1 µM) was 90.9%. It also gave a viability, T/C (second compound 0.01 µM, first compound 0.316 µM) of 66.9%, a viability, T/C (second compound 0.01 µM, first compound 1 µM) of 36% and a viability, T/C (second compound 0.0316 µM, first compound 0.00316 µM) of 84.2%. It also gave a viability, T/C (second compound 0.0316 µM, first compound 0.01 µM) of 72.7%, a viability, T/C (second compound 0.0316 µM, first compound 0.0316 µM) of 67.9% and a viability, T/C (second compound 0.0316 µM, first compound 0.1 µM) of 67.2%. For the same compound, the viability, T/C (second compound 0.0316 µM, first compound 0.316 µM) was 55.1%, the viability, T/C (second compound 0.0316 µM, first compound 1 µM) was 33% and the viability, T/C (second compound 0.1 µM, first compound 0.00316 µM) was 59.7%. The viability, T/C (second compound 0.1 µM, first compound 0.01 µM) was 67.3%, the viability, T/C (second compound 0.1 µM, first compound 0.0316 µM) was 67.5% and the viability, T/C (second compound 0.1 µM, first compound 0.1 µM) was 59.6%. It also gave a viability, T/C (second compound 0.1 µM, first compound 0.316 µM) of 37%, a viability, T/C (second compound 0.1 µM, first compound 1 µM) of 28.1% and a viability, T/C (second compound 0.316 µM, first compound 0.00316 µM) of 62.5%. The viability, T/C (second compound 0.316 µM, first compound 0.01 µM) was 62.8%, the viability, T/C (second compound 0.316 µM, first compound 0.0316 µM) was 54.6% and the viability, T/C (second compound 0.316 µM, first compound 0.1 µM) was 51.3%. For the same compound, the viability, T/C (second compound 0.316 µM, first compound 0.316 µM) was 30.1%, the viability, T/C (second compound 0.316 µM, first compound 1 µM) was 19.1% and the viability, T/C (second compound 1 µM, first compound 0.00316 µM) was 56.9%. It also gave a viability, T/C (second compound 1 µM, first compound 0.01 µM) of 54.1%, a viability, T/C (second compound 1 µM, first compound 0.0316 µM) of 54.3% and a viability, T/C (second compound 1 µM, first compound 0.1 µM) of 49.3%. For the same compound, the viability, T/C (second compound 1 µM, first compound 0.316 µM) was 27% and the viability, T/C (second compound 1 µM, first compound 1 µM) was 21.1%.
In the case of O=C(c1cc(Cc2n[nH]c(=O)c3ccccc23)ccc1F)N1CCN(C(=O)C2CC2)CC1, the viability, T/C (compound 0.0316 µM) is reported as 95.9% and 107% and 96.9%, the viability, T/C (compound 0.1 µM) is reported as 93.1% and 96.8% and 103% and the viability, T/C (compound 0.316 µM) is reported as 88.4% and 102% (2×). The viability, T/C (compound 1 µM) was 86.6% and 93.3% and 97.7%, the viability, T/C (compound 3.16 µM) was 79.3% and 83.1% and 87.7% and the viability, T/C (compound 10 µM) was 64.2% and 68.1% and 68.5%. For the same compound, the IC50 (curve of compound) was over 10000 nM.
For C=C(F)C(=O)N1CCN(c2nc(OCC3CCCN3C)nc3c2CCN(c2cccc4cccc(Cl)c24)C3)CC1CC#N (stereo unspecified), the viability, T/C (compound 0.0316 µM) was 92% and 107% and 106%, the viability, T/C (compound 0.1 µM) was 96.8% and 102% and 95.5% and the viability, T/C (compound 0.316 µM) was 94% and 110% and 105%. For the same compound, the viability, T/C (compound 1 µM) was 92.7% and 106% and 93.5%, the viability, T/C (compound 3.16 µM) was 37.7% and 43.4% and 69.6% and the viability, T/C (compound 10 µM) was 0.22% and 0.29% and 0.24%. The IC50 (curve of compound) was 2450 nM and 2800 nM and 4360 nM.
COc1c(OCCCN2CCOCC2)ccc2c3n(c(=NC(=O)c4cnc(N)nc4)nc12)CCN3 + CCN1C(C(=O)NC23CCC(C(=O)O)(CC2)CC3)C(c2cccc(Cl)c2F)C2(C(=O)Nc3cc(Cl)ccc32)C12CCCCC2 showed an IC50 (curve of first compound, second compound 0.03 µM) of 44.2 nM, an IC50 (curve of first compound, second compound 0.0949 µM) of 38.6 nM and an IC50 (curve of first compound, second compound 0.3 µM) of 37.4 nM. It also gave an IC50 (curve of first compound, second compound 0.949 µM) of 49.1 nM, an IC50 (curve of first compound, second compound 3 µM) of 51 nM and a viability, T/C (second compound 0.03 µM, first compound 0.00316 µM) of 93.9%. The viability, T/C (second compound 0.03 µM, first compound 0.01 µM) was 91.4%, the viability, T/C (second compound 0.03 µM, first compound 0.0316 µM) was 56.9% and the viability, T/C (second compound 0.03 µM, first compound 0.1 µM) was 28.8%. It also gave a viability, T/C (second compound 0.03 µM, first compound 0.316 µM) of 17.4%, a viability, T/C (second compound 0.03 µM, first compound 1 µM) of 11.1% and a viability, T/C (second compound 0.0949 µM, first compound 0.00316 µM) of 87.3%. It also gave a viability, T/C (second compound 0.0949 µM, first compound 0.01 µM) of 73.5%, a viability, T/C (second compound 0.0949 µM, first compound 0.0316 µM) of 57.5% and a viability, T/C (second compound 0.0949 µM, first compound 0.1 µM) of 25.8%. The viability, T/C (second compound 0.0949 µM, first compound 0.316 µM) was 16.1%, the viability, T/C (second compound 0.0949 µM, first compound 1 µM) was 9.86% and the viability, T/C (second compound 0.3 µM, first compound 0.00316 µM) was 89.3%. For the same compound, the viability, T/C (second compound 0.3 µM, first compound 0.01 µM) was 72.3%, the viability, T/C (second compound 0.3 µM, first compound 0.0316 µM) was 57.2% and the viability, T/C (second compound 0.3 µM, first compound 0.1 µM) was 26.9%. It also gave a viability, T/C (second compound 0.3 µM, first compound 0.316 µM) of 16.3%, a viability, T/C (second compound 0.3 µM, first compound 1 µM) of 10.5% and a viability, T/C (second compound 0.949 µM, first compound 0.00316 µM) of 93.6%. For the same compound, the viability, T/C (second compound 0.949 µM, first compound 0.01 µM) was 86.5%, the viability, T/C (second compound 0.949 µM, first compound 0.0316 µM) was 61.8% and the viability, T/C (second compound 0.949 µM, first compound 0.1 µM) was 30.3%. The viability, T/C (second compound 0.949 µM, first compound 0.316 µM) was 15.6%, the viability, T/C (second compound 0.949 µM, first compound 1 µM) was 10.4% and the viability, T/C (second compound 3 µM, first compound 0.00316 µM) was 87.2%. The viability, T/C (second compound 3 µM, first compound 0.01 µM) was 85.3%, the viability, T/C (second compound 3 µM, first compound 0.0316 µM) was 62.6% and the viability, T/C (second compound 3 µM, first compound 0.1 µM) was 31.2%. For the same compound, the viability, T/C (second compound 3 µM, first compound 0.316 µM) was 16.4% and the viability, T/C (second compound 3 µM, first compound 1 µM) was 10.9%.
In the case of NC1CCC(NC2CC2c2ccccc2)CC1 (stereo unspecified), the viability, T/C (compound 0.000316 µM) is reported as 96.7% and 95.9% and 95.3%, the viability, T/C (compound 0.001 µM) is reported as 87.1% and 102% and 107% and the viability, T/C (compound 0.00316 µM) is reported as 96.5% and 88.6% and 98%. For the same compound, the viability, T/C (compound 0.01 µM) was 92.1% and 90.5% and 103%, the viability, T/C (compound 0.0316 µM) was 90.3% and 85.1% and 100% and the viability, T/C (compound 0.1 µM) was 84.9% and 93% and 96.2%. For the same compound, the IC50 (curve of compound) was over 100 nM.
